Experimental data taken from patent publication US12612397B2, “Methods and compositions for modulating splicing” (Skyhawk Therapeutics, Inc., priority 2019, dated 2026).

Test system: MDR1
Assay: in vitro
Conditions: dog, MDCK-MDR1, pH 7.4
Method: The permeability of compounds is assessed for BBB penetration potential by use of an MDCK-MDR1 assay (Catalog EA203) performed by Absorption Systems, Exton PA.
MDR1-MDCK cell monolayers are grown to confluence on collagen-coated, microporous membranes in 12-well assay plates. The permeability assay buffer is Hanks' balanced salt solution containing 10 mM HEPES and 15 mM glucose at a pH of 7.4. The buffer in the receiver chamber also contained 1% bovine serum albumin. The dosing solution concentration is 5 μM of test article in the assay buffer. Cell monolayers are dosed on the apical side (A-to-B) or basolateral side (B-to-A) and incubated at 37° C. with 5% CO2 in a humidified incubator. Samples are taken from the donor and receiver chambers at 120 minutes. Each determination is performed in duplicate. The flux of lucifer yellow is also measured post-experimentally for each monolayer to ensure no damage is inflicted to the cell monolayers during the flux period. All samples are assayed by LC-MS/MS using electrospray ionization.
Efflux ratio (ER) is defined as Papp (B-to-A)/Papp (A-to-B).
• Column: Waters ACQUITY UPLC BEH Phenyl 30×2.1 mm, 1.7 μm • M.P. Buffer: 25 mM ammonium formate buffer, pH 3.5 • Aqueous Reservoir (A): 90% water, 10% buffer • Organic Reservoir (B): 90% acetonitrile, 10% buffer • Flow Rate: 0.7 mL/minute Gradient Program:
• Total Run Time: 1.00 minute • Autosampler: 2 μL injection volume • Wash1: water/methanol/2-propanol:1/1/1; with 0.2% formic acid • Wash2: 0.1% formic acid in water

SMILES | Papp A→B at 120 min, 5 μM | Papp B→A at 120 min, 5 μM | efflux ratio at 120 min, 5 μM
CN(c1ncc(-c2ccc(-c3cn[nH]c3)cc2O)nn1)[C@H]1C[C@@H]2CC[C@@H](N2)[C@H]1F (single isomer, unassigned) [Compound 1B] | 2.95 ×10⁻⁶ cm/s | 33.2 ×10⁻⁶ cm/s | 11
CN(C)C(=O)c1cc2cc(O)c(-c3cnc(N(C)[C@H]4C[C@@H]5CC[C@@H](N5)[C@H]4F)nn3)cc2o1 (single isomer, unassigned) [Compound 9B] | 2.4 ×10⁻⁶ cm/s | 58.5 ×10⁻⁶ cm/s | 24
CN(c1ncc(-c2cc3ccncc3s2)nn1)[C@H]1C[C@@H]2CC[C@@H](N2)[C@H]1F (single isomer, unassigned) [Compound 8B] | 12.9 ×10⁻⁶ cm/s | 49.6 ×10⁻⁶ cm/s | 4
CN(c1ncc(-c2cc3ccncc3s2)nn1)[C@@H]1C[C@H]2CC[C@H](N2)[C@@H]1F (single isomer, unassigned) [Compound 8A] | 13.5 ×10⁻⁶ cm/s | 37.3 ×10⁻⁶ cm/s | 3
CN(c1ncc(-c2ccc(-c3cnn(C)c3)cc2O)nn1)[C@H]1C[C@@H]2CCC[C@@H](N2)[C@H]1F (single isomer, unassigned) [Compound 2B] | 6.89 ×10⁻⁶ cm/s | 32.9 ×10⁻⁶ cm/s | 5
CN(c1ncc(-c2ccc(-c3cnn(C)c3)cc2O)nn1)[C@@H]1C[C@H]2CCC[C@H](N2)[C@@H]1F (single isomer, unassigned) [Compound 2A] | 4.48 ×10⁻⁶ cm/s | 30.3 ×10⁻⁶ cm/s | 7
CN(c1ncc(-c2ccc(-c3cn[nH]c3)cc2O)nn1)[C@@H]1C[C@H]2CC[C@H](N2)[C@@H]1F (single isomer, unassigned) [Compound 1A] | 3.47 ×10⁻⁶ cm/s | 51.6 ×10⁻⁶ cm/s | 15
CN(C)C(=O)c1cc2cc(O)c(-c3cnc(N(C)[C@@H]4C[C@H]5CC[C@H](N5)[C@@H]4F)nn3)cc2o1 (single isomer, unassigned) [Compound 9A] | 2.55 ×10⁻⁶ cm/s | 61.2 ×10⁻⁶ cm/s | 24

Test system: SMN protein
Assay: SMN protein assay (MSD) in SMA patient fibroblasts (GM03813)
Assay type: cell-based, human
Conditions: SMN protein by MSD, SMA patient fibroblasts GM03813, 48 hours
Method: Compounds were tested on spinal muscular atrophy (SMA) patient fibroblasts (GM03813, Coriell) at doses ranging from 2.5 μM to 0.6 nM. 7000 cells/well were seeded in 96-well plates. Compounds were incubated for 48 hours and the cells were lysed with 100 μL of lysis buffer. 20 μL of lysate was used for SMN protein measurement by Mesoscale Discovery (MSD) assay developed by PharmOptima (Michigan). A standard curve prepared with SMN protein ranging from 1 μg/ml to 19.5 pg/ml was used in each MSD plate to calculate the absolute SMN protein amount in each sample.

SMILES | EC50
CN(c1ncc(-c2ccc(-c3cn[nH]c3)cc2O)nn1)[C@H]1C[C@@H]2CC[C@@H](N2)[C@H]1F (single isomer, unassigned) [Compound 1B] | 0.01 to 15 nM
CN(c1ncc(-c2cc3ccncc3s2)nn1)[C@H]1C[C@@H]2CC[C@@H](N2)[C@H]1F (single isomer, unassigned) [Compound 8B] | 501 to 10000 nM
CN(c1ncc(-c2cc3ccncc3s2)nn1)[C@@H]1C[C@H]2CC[C@H](N2)[C@@H]1F (single isomer, unassigned) [Compound 8A] | 501 to 10000 nM
CN(c1ncc(-c2ccc(-c3cnn(C)c3)cc2O)nn1)[C@H]1C[C@@H]2CCC[C@@H](N2)[C@H]1F (single isomer, unassigned) [Compound 2B] | 16 to 50 nM
CN(c1ncc(-c2ccc(-c3cnn(C)c3)cc2O)nn1)[C@@H]1C[C@H]2CCC[C@H](N2)[C@@H]1F (single isomer, unassigned) [Compound 2A] | 51 to 100 nM
CN(c1ncc(-c2ccc(-c3cn[nH]c3)cc2O)nn1)[C@@H]1C[C@H]2CC[C@H](N2)[C@@H]1F (single isomer, unassigned) [Compound 1A] | 16 to 50 nM

Test system: MDR1-MDCK cell monolayers
Assay: not given
Conditions: dog, MDCK-MDR1, 120 min, 5 μM, pH 7.4

SMILES | MDCK-MDR1: % Recov A-B | MDCK-MDR1: % Recov B-A
CN(c1ncc(-c2ccc(-c3cn[nH]c3)cc2O)nn1)[C@H]1C[C@@H]2CC[C@@H](N2)[C@H]1F (single isomer, unassigned) [Compound 1B] | 78% | 90%
CN(C)C(=O)c1cc2cc(O)c(-c3cnc(N(C)[C@H]4C[C@@H]5CC[C@@H](N5)[C@H]4F)nn3)cc2o1 (single isomer, unassigned) [Compound 9B] | 88% | 97%
CN(c1ncc(-c2cc3ccncc3s2)nn1)[C@H]1C[C@@H]2CC[C@@H](N2)[C@H]1F (single isomer, unassigned) [Compound 8B] | 79% | 81%
CN(c1ncc(-c2cc3ccncc3s2)nn1)[C@@H]1C[C@H]2CC[C@H](N2)[C@@H]1F (single isomer, unassigned) [Compound 8A] | 87% | 93%
CN(c1ncc(-c2ccc(-c3cnn(C)c3)cc2O)nn1)[C@H]1C[C@@H]2CCC[C@@H](N2)[C@H]1F (single isomer, unassigned) [Compound 2B] | 69% | 83%
CN(c1ncc(-c2ccc(-c3cnn(C)c3)cc2O)nn1)[C@@H]1C[C@H]2CCC[C@H](N2)[C@@H]1F (single isomer, unassigned) [Compound 2A] | 81% | 84%
CN(c1ncc(-c2ccc(-c3cn[nH]c3)cc2O)nn1)[C@@H]1C[C@H]2CC[C@H](N2)[C@@H]1F (single isomer, unassigned) [Compound 1A] | 86% | 89%
CN(C)C(=O)c1cc2cc(O)c(-c3cnc(N(C)[C@@H]4C[C@H]5CC[C@H](N5)[C@@H]4F)nn3)cc2o1 (single isomer, unassigned) [Compound 9A] | 92% | 100%

Test system: SMN FL
Assay: Quantitative splicing assay (SMN) in SMA patient fibroblasts (GM03813)
Assay type: cell-based
Conditions: Homo sapiens, Fibroblast; SMA patient fibroblasts GM03813, 24 h, qPCR
Method: Spinal muscular atrophy (SMA) patient fibroblasts (GM03813, Coriell) are plated in 96-well plates at 50,000 cells/well. Immediately after plating, cells are dosed with compounds for 24 h at concentrations ranging from 2.5 μM to 0.6 nM (0.1% DMSO). Treated cells are lysed and cDNA synthesized using the Fast Advanced Cells-to-Ct kit (Thermofisher A35378) according to the manufacturer's instructions. 2 μL of each cDNA are used in qPCR reactions. The qPCR reactions are prepared in 384-well plates in 10 μL volume, using TaqMan™ Fast Advanced Master Mix (ThermoFisher; 4444965) with primers and probes shown in the table below. Reactions are run in a Quant Studio 6 qPCR instrument with default settings.

SMILES | EC50
CN(c1ncc(-c2ccc(-c3cn[nH]c3)cc2O)nn1)[C@H]1C[C@@H]2CC[C@@H](N2)[C@H]1F (single isomer, unassigned) [Compound 1B] | 101 to 500 nM
CN(c1ncc(-c2ccc(-c3cn[nH]c3)cc2O)nn1)[C@@H]1C[C@H]2CC[C@H](N2)[C@@H]1F (single isomer, unassigned) [Compound 1A] | 0.01 to 15 nM
